The source of these data is PMC9246869, “Allosteric inhibition of PPM1D serine/threonine phosphatase via an altered conformational state” (Nature Communications, 2022).

Holding throughout (test): Surface plasmon resonance (SPR)
Holding throughout (type): binding

The target in assay [1] is T1, PPM1D1–420 (Homo sapiens, UniProt O15297).
T1 construct: PPM1D1–420 was PCR-amplified from the synthesized gene with BsaI sites; His(6)-SUMO (N, cleaved yes); made in house; host or cells: E. coli BL21 (DE3)
T1 sequence (O15297 1-420): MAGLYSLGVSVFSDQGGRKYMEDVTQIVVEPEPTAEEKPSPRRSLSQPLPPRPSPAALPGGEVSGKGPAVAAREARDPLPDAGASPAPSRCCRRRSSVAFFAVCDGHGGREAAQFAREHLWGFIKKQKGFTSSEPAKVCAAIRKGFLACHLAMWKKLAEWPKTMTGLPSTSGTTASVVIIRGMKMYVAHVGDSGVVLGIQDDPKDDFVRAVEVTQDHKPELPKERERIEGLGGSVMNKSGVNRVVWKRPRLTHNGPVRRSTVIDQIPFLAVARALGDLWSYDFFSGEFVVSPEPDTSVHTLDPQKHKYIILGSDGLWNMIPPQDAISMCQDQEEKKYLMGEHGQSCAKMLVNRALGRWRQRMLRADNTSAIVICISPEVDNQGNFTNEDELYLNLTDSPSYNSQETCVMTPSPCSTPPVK
Particulars: for Kd: read-out: KD. The procedure:
(§1) SPR was carried out on the Biacore S200 (GE Healthcare) using Series S sensor chip NTA (GE BR-1005-32). The preparation of the chip surface was conducted according to the manufacturer’s indications. The running buffer contained 50 mM Tris (pH 7.5), 50 mM NaCl, 1 mM MgCl2, 0.5 mM TCEP, 0.005% (v/v) P20 surfactant, and 2% DMSO. PPM1D1–420 and PPM1D∆Flap were run under single-cycle mode due to the slow-off-rate kinetics. The two proteins were immobilized on the chip surface in flow cells 2 and 3 with a signal of ~1500–2000 RU at a rate of 5 μL/min while flow cell 1 was left blank as a reference. The running buffer was injected three times followed by the GSK2830371 analyte in solution. Injections were carried out at a flow rate of 50 μL/min with the analyte in a concentration series of 5-point, 3-fold ending at 400 nM top dose. The association and dissociation phases were monitored for 90 s and 600 s, respectively. Collected data were evaluated using the Biacore S200 Evaluation Software under 1:1 binding mode. PPM1D∆Hinge was run under multi-cycle mode due to its fast-on/fast-off kinetics. The protein was immobilized to give a signal of ~ 3000 RU. GSK2830371 analyte in solution was injected at a flow rate of 90 μL/min in a 10-pt, 2-fold concentration series ending at 15 μM top dose. The association and dissociation phases were monitored for 45 s and 150 s, respectively. Since GSK2830371 had issues with solubility/aggregation at high concentrations that caused artifacts in sensorgrams, only steady-state analysis was performed to extract Kd.

In assay [2] the target is T2, PPM1DΔflap (Homo sapiens, UniProt O15297, DEL219-231/DEL235-284/E287S/S285N).
T2 construct: PPM1D1–218-GGSNGS-288–420 (PPM1D∆flap); His(6)-SUMO (N, cleaved yes); made in house; host or cells: E. coli BL21 (DE3)
T2 sequence (O15297 with tags, fused parts or gaps DEL219-231/DEL235-284/S285N/E287S): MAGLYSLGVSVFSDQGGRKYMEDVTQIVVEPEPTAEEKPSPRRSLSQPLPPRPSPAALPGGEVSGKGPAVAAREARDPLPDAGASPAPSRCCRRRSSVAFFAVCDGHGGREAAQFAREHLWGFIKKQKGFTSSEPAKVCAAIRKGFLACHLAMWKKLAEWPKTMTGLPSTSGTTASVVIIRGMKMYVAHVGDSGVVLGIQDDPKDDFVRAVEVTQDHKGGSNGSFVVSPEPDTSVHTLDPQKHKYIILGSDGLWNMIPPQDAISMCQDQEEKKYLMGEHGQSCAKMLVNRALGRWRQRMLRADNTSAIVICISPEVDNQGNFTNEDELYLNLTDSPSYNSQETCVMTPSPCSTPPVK
The method, then: as §1

In assay [3] the target is T3, PPM1DΔhinge (Homo sapiens, UniProt O15297, DEL155-163/G166S/M164G/T165G).
T3 construct: PPM1D1–154-GGS-167–420 (PPM1D∆hinge); His(6)-SUMO (N, cleaved yes); made in house; host or cells: E. coli BL21 (DE3)
T3 sequence (O15297 with tags, fused parts or gaps DEL155-163/M164G/T165G/G166S): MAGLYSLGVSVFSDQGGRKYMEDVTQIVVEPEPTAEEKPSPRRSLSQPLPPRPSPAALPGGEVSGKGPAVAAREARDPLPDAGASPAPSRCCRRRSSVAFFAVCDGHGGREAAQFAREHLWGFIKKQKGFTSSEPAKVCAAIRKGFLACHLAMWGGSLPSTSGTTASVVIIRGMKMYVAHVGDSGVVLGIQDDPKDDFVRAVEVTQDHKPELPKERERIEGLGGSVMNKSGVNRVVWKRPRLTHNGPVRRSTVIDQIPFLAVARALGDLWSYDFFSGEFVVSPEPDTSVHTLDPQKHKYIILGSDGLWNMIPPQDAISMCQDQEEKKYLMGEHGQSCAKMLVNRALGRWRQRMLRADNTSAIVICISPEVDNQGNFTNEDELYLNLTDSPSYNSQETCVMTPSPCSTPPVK
The procedure:
as §1

Values joined by “and” are separate entries in the source; they are usually repeats but may differ in a detail not shown here. Identical values can stand only once. Like-named read-outs stand apart in the source and are kept apart here.

Turning to `Cc1ncc(Cl)cc1NCc1ccc(C(=O)N[C@@H](CC2CCCC2)C(=O)NC2CC2)s1` [GSK2830371], the dissociation rate constant (koff) in assay [1] (Fig 3D, Average of 3 trials) is 0.00024 s⁻¹; in assay [1] (Fig 3D, individual trials), 0.00011 s⁻¹ and 0.00028 s⁻¹ and 0.00033 s⁻¹; in assay [2] (read-out: koff (SPR)) it was 0.0045 s⁻¹. In addition, the kon in assay [1] (Fig 3D, Average of 3 trials) was 433000 M⁻¹ s⁻¹; in assay [1] (Fig 3D, individual trials), 595000 M⁻¹ s⁻¹ and 343000 M⁻¹ s⁻¹ and 362000 M⁻¹ s⁻¹; in assay [1] (read-out: kon (SPR), PPM1D1–420, Fig. 3D), 430000 ± 100000 M⁻¹ s⁻¹; in assay [2] (read-out: kon (SPR)), 5e+06 M⁻¹ s⁻¹. For the same molecule, the equilibrium dissociation constant (Kd) is 1.2 nM in assay [1] (Fig 3D, Average of 3 trials); 0.8 nM and 1 nM in assay [1] (Fig 3D, individual trials); 1 nM in assay [2] (PPM1DΔflap, Fig. 6A); 1000 nM in assay [3] (PPM1DΔhinge, multi-cycle, steady-state analysis). Further, the “decrease in binding affinity by SPR upon hinge deletion” value in assay [3] (PPM1DΔhinge versus PPM1D1–420) is on record as ~ 1000 fold.

The term koff denotes the first-order rate constant of dissociation. What is called kon is the rate constant with which the complex forms. A word on the Kd: it is the concentration at which binding is half-saturated.
